In patent US7968595B2, “Substituted 4-aryl-chromene as activator of caspases and inducer of apoptosis and as antivascular agent and the use thereof” (Cytovia, Inc., priority 2006, dated 2011):
pEC50: −log10 of the molar value.

Experiments:
[1] = tested on: MX1 human breast cancer tumors; assay: In vivo antitumor activity in MX-1 model, combination with cisplatin and doxorubicin; parameters: species or system mice
Description: MX1 human breast cancer tumors were obtained from the NCI-FCRDC and maintained as tumors in nude mice. Tumor bits were implanted with a trocar into the right mammary area of female nu/nu mice and allowed to grow to an average size of 200-250 mg, about 12 days after being implanted. Animals were randomized and assigned to study groups of 8-10 animals/group. Body weight were determined and tumor size were measured by calipers and converted to volume by the standard formula of Vol=L×W^2/2. Compound 1R was formulated in 7% PEG400/9% Tween80/84% D5W and administered IV via the tail vein at the indicated days and doses. Day 1 of the study was the first day of treatment. Survival time was the number of days for the tumor to reach 1000 mg or death, whichever occurred earliest. Median survival is the median for the group.
Mice implanted with MX1 human breast cancer tumors were treated with compound 1R as described in EXAMPLE 11. Cisplatin was administered IP whereas doxorubicin was administered IV at the indicated doses.

T-47D = assay: Caspase activation assay in T-47D cells; format: cell-based; conditions: Homo sapiens; T47D cells, 24 h incubation; read-out: Caspase activation potency EC50 T47D
Description: (§1) Human breast cancer cell lines T-47D and ZR-75-1, human colon cancer cell line DLD-1 and human non-small cell lung cancer cell line H1299 were grown according to media component mixtures designated by American Type Culture Collection+10% FCS (Invitrogen Corporation), in a 5% CO2−95% humidity incubator at 37° C. T-47D and ZR-75-1 cells were maintained at a cell density between 30 and 80% confluency at a cell density of 0.1 to 0.6×10^6 cells/mL. Cells were harvested at 600×g and resuspended at 0.65×10^6 cells/mL into appropriate media+10% FCS. An aliquot of […] of cells was added to a well of a 96-well microtiter plate containing 5 μl of a 10% DMSO in RPMI-1640 media solution containing about 0.16 to 10 μM of 2,7,8-triamino-4-(3-bromo-4,5-dimethoxy-phenyl)-3-cyano-4H-chromene (1) or other test compounds (0.016 to 1 μM final). An aliquot of 45 μl of cells was added to a well of a 96-well microtiter plate containing 5 μl of a 10% DMSO in RPMI-1640 media solution without test compound as the control sample. The samples were mixed by agitation and then incubated at 37° C. for 24 h in a 5% CO2−95% humidity incubator. After incubation, the samples were removed from the incubator and 50 μl of a solution containing 20 μM of N-(Ac-DEVD)-N′-ethoxycarbonyl-R110 (SEQ ID No:1) fluorogenic substrate (Cytovia, Inc.; U.S. Pat. No. 6,335,429), 20% sucrose (Sigma), 20 mM DTT (Sigma), 200 mM NaCl (Sigma), 40 mM Na PIPES buffer pH 7.2 (Sigma), and 500 μg/ml lysolecithin (Calbiochem) was added. The samples were mixed by agitation and incubated at room temperature. Using a fluorescent plate reader (Model 1420 Wallac Instruments), an initial reading (T=0) was made about 1-2 min after addition of the substrate solution, employing excitation at 485 nm and emission at 530 nm, to determine the background fluorescence of the control sample. After the 3 h incubation, the samples were read for fluorescence as above (T=3 h).
(§2) The Relative Fluorescence Unit values (RFU) were used to calculate the sample readings as follows: RFU(T=3h)−Control RFU(T=0)=Net RFU(T=3h)
(§3) The activity of caspase cascade activation was determined by the ratio of the net RFU value for 2,7,8-triamino-4-(3-bromo-4,5-dimethoxy-phenyl)-3-cyano-4H-chromene or other test compound to that of control samples. The EC50 (nM) was determined by a sigmoidal dose-response calculation (Prism 2.0, GraphPad Software Inc.).

ZR-75-1 = assay: Caspase activation assay in ZR-75-1 cells; format: cell-based; conditions: Homo sapiens, ZR751 cells, 24 h incubation, read-out: Caspase activation potency EC50 ZR751
Description: as §1, with “After incubation, the samples were removed from the incubator and 50 μl of a solution containing 20 μM of N-(Ac-DEVD)-N′-ethoxycarbonyl-R110 (SEQ ID No:1) fluorogenic substrate (Cytovia, Inc.; U.S. Pat. No. 6,335,429), 20% sucrose (Sigma), 20 mM DTT (Sigma), 200 mM NaCl (Sigma), 40 mM Na PIPES buffer pH 7.2 (Sigma), and 500 μg/ml lysolecithin (Calbiochem) was added. The samples were mixed by agitation and incubated at room temperature.” left out
as §2, §3

DLD-1 = assay: Caspase activation assay in DLD-1 cells; format: cell-based; conditions: Homo sapiens, 24 h incubation, read-out: Caspase activation potency EC50 DLD-1
Description: as §1, with “After incubation, the samples were removed from the incubator and 50 μl of a solution containing 20 μM of N-(Ac-DEVD)-N′-ethoxycarbonyl-R110 (SEQ ID No:1) fluorogenic substrate (Cytovia, Inc.; U.S. Pat. No. 6,335,429), 20% sucrose (Sigma), 20 mM DTT (Sigma), 200 mM NaCl (Sigma), 40 mM Na PIPES buffer pH 7.2 (Sigma), and 500 μg/ml lysolecithin (Calbiochem) was added. The samples were mixed by agitation and incubated at room temperature.” left out
as §2, §3

H1299 = assay: Caspase activation assay in H1299 cells; format: cell-based; conditions: Homo sapiens, NCI-H1299, 24 h incubation, read-out: Caspase activation potency EC50 H1299
Description: as §1, §2, §3

solid tumor cells = assay: Caspase cascade activation and induction of apoptosis, overall statement; format: cell-based, human; conditions: summary of Table I
Description: as §1, with “After incubation, the samples were removed from the incubator and 50 μl of a solution containing 20 μM of N-(Ac-DEVD)-N′-ethoxycarbonyl-R110 (SEQ ID No:1) fluorogenic substrate (Cytovia, Inc.; U.S. Pat. No. 6,335,429), 20% sucrose (Sigma), 20 mM DTT (Sigma), 200 mM NaCl (Sigma), 40 mM Na PIPES buffer pH 7.2 (Sigma), and 500 μg/ml lysolecithin (Calbiochem) was added. The samples were mixed by agitation and incubated at room temperature.” left out
as §3

[2] = doxorubicin 2 mg/kg, day 2, 9, IV
[3] = cisplatin 2 mg/kg, day 2, 9, IP

Structure (SMILES)	pEC50 (T-47D)	pEC50 (H1299)	also measured
COc1cccc2c1C(=O)c1c(O)c3c(c(O)c1C2=O)C[C@@](O)(C(=O)CO)C[C@@H]3O[C@H]1C[C@H](N)[C@H](O)[C@H](C)O1 [Doxorubicin, reference compound]			Median survival [1, 2]: 11 days; Number of tumor free mice at day 91 [1, 2]: 0 of 9
N.N.[Cl][Pt][Cl] [Cisplatin, reference compound]			Median survival [1, 3]: 27 days; Number of tumor free mice at day 91 [1, 3]: 1 of 7; Median survival ([1]; cisplatin 2 mg/kg, day 2, IP): 11 days; Number of tumor free mice at day 91 ([1]; cisplatin 2 mg/kg, day 2, IP): 0 of 9
COc1cc([C@@H]2C(C#N)=C(N)Oc3c2ccc(N)c3N)cc(Br)c1OC [Compound 1S, S(+)-2,7,8-triamino-4-(3-bromo-4,5-dimethoxy-phenyl)-3-cyano-4H-chromene]	5.60	5.49	pEC50 (ZR-75-1): 5.70; pEC50 (DLD-1): 5.34; Caspase cascade activator and inducer of apoptosis (in words) (solid tumor cells): inactive isomer
COc1cc(C2C(C#N)=C(N)Oc3c2ccc(NC(=O)C[N+](C)(C)C)c3N)cc(Br)c1OC (stereo not shown) [D]	< 5.00	< 5.00	
COc1cc(C2C(C#N)=C(N)Oc3c2ccc(NC(=O)CCCN)c3N)cc(Br)c1OC (stereo not shown) [B]	5.26	5.24	
COc1cc([C@H]2C(C#N)=C(N)Oc3c2ccc(NC(=O)[C@H](C)NC(=O)OCC2c4ccccc4-c4ccccc42)c3N)cc(Br)c1OC [Compound 3, (9H-fluoren-9-yl)methyl(S)-1-((R)-2,8-diamino-3-cyano-4-(3-bromo-4,5-dimethoxyphenyl)-4H-chromen-7-ylcarbamoyl)ethylcarbamate]	5.54		
COc1cc(C2C(C#N)=C(N)Oc3c2ccc(NC(=O)C2CCCN2)c3N)cc(Br)c1OC (stereo not shown) [Compound E]	5.41	5.27	
COc1cc([C@H]2C(C#N)=C(N)Oc3c2ccc(NC(=O)CN)c3N)cc(Br)c1OC [Compound 6, 2-Amino-N—((R)-2,8-diamino-4-(3-bromo-4,5-dimethoxyphenyl)-3-cyano-4H-chromen-7-yl)acetamide]	7.22		
COc1cc([C@H]2C(C#N)=C(N)Oc3c2ccc(NC(=O)CNC(=O)OCC2c4ccccc4-c4ccccc42)c3N)cc(Br)c1OC [Compound 5, (9H-fluoren-9-yl)methyl((R)-2,8-diamino-4-(3-bromo-4,5-dimethoxyphenyl)-3-cyano-4H-chromen-7-ylcarbamoyl)methylcarbamate]	5.61		
COc1cc(C2C(C#N)=C(N)Oc3c2ccc(NC(=O)CN)c3N)cc(Br)c1OC (stereo not shown) [C]	6.80	6.56	
COc1cc(C2C(C#N)=C(N)Oc3c2ccc(NC(=O)[C@H](N)CCCCN)c3N)cc(Br)c1OC (stereo partly shown) [G]	5.85	5.43	
COc1cc([C@H]2C(C#N)=C(N)Oc3c2ccc(NC(=O)[C@H](C)N)c3N)cc(Br)c1OC [Compound 4, (2S)-2-Amino-N—((R)-2,8-diamino-4-(3-bromo-4,5-dimethoxyphenyl)-3-cyano-4H-chromen-7-yl)propanamide]	7.28		Caspase cascade activator and inducer of apoptosis (in words) (solid tumor cells): potent caspase cascade activator and inducer of apoptosis
COc1cc(C2C(C#N)=C(N)Oc3c2ccc(NC(=O)C(N)COC(C)=O)c3N)cc(Br)c1OC (stereo not shown) [F]	5.38	5.25	
COc1cc(C2C(C#N)=C(N)Oc3c2ccc(N)c3N)cc(Br)c1OC (racemic) [Compound 1, 2,7,8-Triamino-4-(3-bromo-4,5-dimethoxy-phenyl)-3-cyano-4H-chromene]	7.38	6.92	pEC50 (ZR-75-1): 7.46; pEC50 (DLD-1): 7.11
COc1cc(C2C(C#N)=C(N)Oc3c2ccc(NC(=O)CN(C)C)c3N)cc(Br)c1OC (stereo not shown) [A]	5.59	5.48	
